Test results published in patent US8865122B2, “Methods and compositions for protein labelling” (Genentech, Inc., priority 2009, dated 2014).
One block for each compound: values may come before it.

Columns and labels:
Hsp90 = Hsp90 targeted therapy (17-AAG) treatment response monitored by microPET; format: in vivo, Beige nude XID mice
Description: Hsp90 targeted therapy and microPET imaging. Mice were distributed into two groups (n=4) according to tumor uptake and volume as determined by ^18F-4D5ThioFab one day prior to 17-AAG treatment (Gill et al (2009) Jour. Med. Chem. 52(19):5816-5825). 17-AAG was administered to the treated group at day 0, while the control group animals were left untreated. PET imaging with ^18F-4D5ThioFab was performed at day 1 (fourteen hours after the administration of the last 17-AAG dose), day 5, and day 7. Coronal slices through the tumor of control animals and animals treated with 17-AAG one day before and one day after therapy are shown in FIG. 5a. […] The renal clearance of ^18F-4D5ThioFab was predominant with significant accumulation of radioactivity in the bladder and high uptake in the renal cortex (Table 3). The hepatobiliary route also contributed to tracer excretion leading to accumulation of radioactive metabolites in the large intestine and gall bladder while the retention of radioactivity in the liver was relatively low. […]
Mice were anesthetized with 3% sevoflurane and inoculated i.v. via the tail vein catheter with 0.3-0.4 mCi of ^18F-Thio4D5Fab in isotonic solution (50-100 μL). […] Body temperature was measured by a rectal probe and maintained by warm air. […]

HER2 = details: after 17-AAG, BT474 xenograft, cited from earlier work
[1] = lipophilicity (log P) measurement; format: physicochemical; details: pH 7.4
Description: After SPE treatment, method B provided [^18F] 5 with a yield of 59±4%, a radiochemical purity of 94%, and a specific activity of 5.1±1.5 Ci/μmol (determined against an HPLC standard curve of ^19F-labeled 5) in 47±1 min (n=5). The identity of [^18F] 5 was confirmed by HPLC co-elution with ^19F-labeled standard and by LC/MS analysis of the decayed product. The lipophilicity (log P) of [^18F]5 (−2.41±0.09) was measured at pH 7.4 consistent with published methods (Rodionov et al (2007) J Am Chem Soc 129:12705-12).

[2] = water solubility observation; format: physicochemical
Source text: 4 or [^18F]FPEG4N3 with methods B and C. […] Therefore, method C may be well suited for general radiochemical application facilitating the development of a consistent radiochemical process for the production of a variety of ^18F-labeled prosthetic groups. This may have strong implications for automation and may eliminate the need for dedicating a synthesis module to a specific prosthetic group, as is the case with [^18F]SFB.

SMILES: C=CCNC1=C2C[C@@H](C)C[C@H](OC)[C@H](O)[C@@H](C)/C=C(\C)[C@H](OC(N)=O)[C@@H](OC)/C=C\C=C(/C)C(=O)NC(=CC1=O)C2=O [Compound 17-AAG, 17-(allylamino)-17-demethoxygeldanamycin]
reduction in tumor uptake of ^18F-4D5ThioFab (Hsp90; day 1 after 17-AAG (three 50 mg/kg i.p. doses), compared to control group and day −1, BT474M1 xenograft): 50%
rebound of HER2 expression (Hsp90; day 5 after 17-AAG, ^18F-4D5ThioFab tumor uptake): 100%
return of HER2 to pretreatment levels (HER2; ^68Ga-DCHF (Smith-Jones et al)): 12 days
reduction in HER2 levels (HER2; imaged with ^68Ga-DCHF (Smith-Jones et al)): 70%

logP [1]: -2.41 ± 0.09
SMILES: O=C1C=CC(=O)N1CCOCCOCCOCCOCCOCCOCc1cn(CCOCCOCCOCCOCCOCCOCCOCC[18F])nn1 [[^18F]5]

SMILES: [N-]=[N+]=NCCOCC[18F] [[^18F]FPEG2N3]
water solubility [2]: limited water solubility
